Data published in patent publication US20220133722A1, “PHARMACEUTICAL COMPOSITIONS” (QUE ONCOLOGY PTY LTD, priority 2019, published 2022).
“And” between values parts separate entries of the source, which are not always exact repeats. Equal values may be shown once. Read-outs that look alike come from different tables or passages of the source.

Assay: Part 2 PK study: 200 mg QD versus 100 mg BID for 10 days under fed conditions
Assay type: in vivo, human
Settings: fed; for AUC: read-out: AUC0-tau; for Tmax: read-out: Tmax; for half-life: read-out: t½ (converted); for concentration at 10 day: read-out: Cmin; for Vd/F: read-out: Vz/F
Description: Part 2 involved analysing the PK parameters obtained following either single (QD) or twice daily (BD) dosing of a compound of formula (Ia) under fed conditions.
Subjects were randomized 1:1 to receive a daily dose of 200 mg administered once daily in the morning (200 mg capsule) or twice daily (100 mg capsules BID) for a total of 10 days. PK blood samples were taken on Day 1 pre-dose and at 0.25, 0.5, 1.0, 1.5, 2, 3, 4, 8, 10, 12 and 16 hours post-dose. On Days 2 to 10, PK blood samples were taken once pre-dose, and on Days 11 to 14, at 24, 36, 48, 60, 72 and 96 hours post-dose.
Subjects selected for participation checked into the clinical unit and were randomized to the dosing regimen receiving their first dose of study drug on the morning of Day 1 followed by PK and safety assessments through the morning of Day 2 (24 hours post-dose). Subjects on a BID regimen received their second dose of study drug approximately 12 hours after the first dose. Subjects remained confined in the clinic for dosing BID or QD through the last dose of study drug on the morning of Day 10. PK samples were collected through 96 hrs post-dose. Subjects were discharged from the clinic following collection of the 72 hr PK sample, returning to the clinic on the morning of Day 14 for the 96 hr sample collection.
For both Parts 1 and 2, samples were processed and analysed as follows. The method extracted Q-122 and the Internal Standard (IS, Q-122 ^13C4) from human plasma using protein precipitation extraction.
The analytes were separated by HPLC on a Phenomenex Synergi Polar-RP column, and the eluates monitored by an API4000 MS/MS detector in positive MRM mode. The extract was then assayed against a calibration curve. The data were acquired and processed by the data acquisition system Analyst® (Sciex) linked directly to the API4000 MS/MS detector and then processed in Watson LIMS™ (Thermo Scientific), where applicable. The method range is from 10.0 to 2500 ng/mL using 50 μL of matrix and has a run time of approximately 3.2 minutes per sample.
Plasma PK parameters for each dosing regimen and dose level were calculated from the concentrations of Q-122 and its major metabolites measured in pre-dose and post-dose plasma samples. For each dose level, descriptive statistics (sample size, arithmetic means, geometric means, standard deviation, % coefficient of variation, minimum, median, and maximum) are presented.
The pharmacokinetic results were processed according to standard non-compartmental analytical procedures. The software used was Phoenix™ WinNonlin® v 6.4 (Pharsight Corporation, USA) and Microsoft® Excel® 2010 (Microsoft Corporation). The following PK parameters were estimated from plasma data.

[1] = 200 mg QD, Day 10, individual subjects
[2] = human, plasma, oral, 100 mg, 100 mg BID, Day 1, individual subjects
[3] = human, plasma, oral, 100 mg, 100 mg BID, Day 1, mean
[4] = human, plasma, oral, 100 mg, 100 mg BID, Day 1, median
[5] = human, plasma, oral, 100 mg, 100 mg BID, Day 10, individual subjects
[6] = human, plasma, oral, 100 mg, 100 mg BID, Day 10, mean
[7] = human, plasma, oral, 100 mg, 100 mg BID, Day 10, median
[8] = human, plasma, oral, 200 mg, 200 mg QD, Day 1, mean
[9] = human, plasma, oral, 200 mg, 200 mg QD, Day 1, median
[10] = human, plasma, oral, 200 mg, 200 mg QD, Day 10, mean
[11] = human, plasma, oral, 200 mg, 200 mg QD, Day 10, median

With `c1cnc(NCc2ccc(CNc3ncccn3)cc2)nc1` [Q-122] the “% AUCexp” value [1] was 2.32% and 3.36% and 2.33% and 7.19% and 10.70% and 1.77%, the AUC0-last [1] was 12003 ng·h/mL and 11557 ng·h/mL and 9531 ng·h/mL and 14024 ng·h/mL and 6077 ng·h/mL and 10643 ng·h/mL and the AUC0-tau [1] was 10424 ng·h/mL and 9904 ng·h/mL and 8868 ng·h/mL and 11036 ng·h/mL and 3134 ng·h/mL and 9758 ng·h/mL. The AUCinf [1] was 12287 ng·h/mL and 11959 ng·h/mL and 9759 ng·h/mL and 15111 ng·h/mL and 6805 ng·h/mL and 10834 ng·h/mL, the “Accum Index” value [1] was 1.44 and 1.78 and 1.34 and 2.88 and 2.25 and 1.22 and the CLss/F [1] was 19.19 L/h and 20.19 L/h and 22.55 L/h and 18.12 L/h and 63.82 L/h and 20.50 L/h. The Cavg [1] was 434.33 ng/mL and 412.65 ng/mL and 369.52 ng/mL and 459.84 ng/mL and 130.57 ng/mL and 406.57 ng/mL, the Cmax [1] was 1450.00 ng/mL and 1730.00 ng/mL and 1430.00 ng/mL and 1320.00 ng/mL and 245.00 ng/mL and 1470.00 ng/mL and the Cmin [1] was 74.10 ng/mL and 73.50 ng/mL and 52.20 ng/mL and 93.90 ng/mL and 68.20 ng/mL and 77.70 ng/mL. The Fluct [1] was 316.79% and 401.43% and 372.87% and 266.63% and 135.41% and 342.45%, the Tlast [1] was 60.00 h and 72.00 h and 48.00 h (2×) and 96.00 h (2×) and the t½ [1] was 13.99 h and 20.21 h and 12.03 h and 39.04 h and 28.35 h and 9.63 h. For the same molecule, the “% AUCexp” value (200 mg QD, Day 10, max) was 10.70%, the AUC0-last (200 mg QD, Day 10, max) was 14024 ng·h/mL and the AUC0-tau (200 mg QD, Day 10, max) was 11036 ng·h/mL. The AUCinf (200 mg QD, Day 10, max) was 15111 ng·h/mL, the “Accum Index” value (200 mg QD, Day 10, max) was 2.88 and the CLss/F (200 mg QD, Day 10, max) was 63.82 L/h. It also gave a Cavg (200 mg QD, Day 10, max) of 459.84 ng/mL, a Cmax (200 mg QD, Day 10, max) of 1730.00 ng/mL and a Cmin (200 mg QD, Day 10, max) of 93.90 ng/mL. For the same molecule, the Fluct (200 mg QD, Day 10, max) was 401.43%, the Tlast (200 mg QD, Day 10, max) was 96.00 h and the t½ (200 mg QD, Day 10, max) was 39.04 h. For the same molecule, the “% AUCexp” value (200 mg QD, Day 10, mean) was 4.612%, the CLss/F (200 mg QD, Day 10, mean) was 27.396 L/h and the Cavg (200 mg QD, Day 10, mean) was 368.913 ng/mL. For the same molecule, the Cmin (200 mg QD, Day 10, mean) was 73.267 ng/mL, the Fluct (200 mg QD, Day 10, mean) was 305.929% and the Tlast (200 mg QD, Day 10, mean) was 70.000 h. For the same molecule, the “% AUCexp” value (200 mg QD, Day 10, median) was 2.85%, the “Accum Index” value (200 mg QD, Day 10, median) was 1.61 and the CLss/F (200 mg QD, Day 10, median) was 20.35 L/h. For the same molecule, the Cavg (200 mg QD, Day 10, median) was 409.61 ng/mL, the Cmin (200 mg QD, Day 10, median) was 73.80 ng/mL and the Fluct (200 mg QD, Day 10, median) was 329.62%. For the same molecule, the Tlast (200 mg QD, Day 10, median) was 66.00 h, the “% AUCexp” value (200 mg QD, Day 10, min) was 1.77% and the AUC0-last (200 mg QD, Day 10, min) was 6077 ng·h/mL. The AUC0-tau (200 mg QD, Day 10, min) was 3134 ng·h/mL, the AUCinf (200 mg QD, Day 10, min) was 6805 ng·h/mL and the “Accum Index” value (200 mg QD, Day 10, min) was 1.22. For the same molecule, the CLss/F (200 mg QD, Day 10, min) was 18.12 L/h, the Cavg (200 mg QD, Day 10, min) was 130.57 ng/mL and the Cmax (200 mg QD, Day 10, min) was 245.00 ng/mL. The Cmin (200 mg QD, Day 10, min) was 52.20 ng/mL, the Fluct (200 mg QD, Day 10, min) was 135.41% and the Tlast (200 mg QD, Day 10, min) was 48.00 h. For the same molecule, the t½ (200 mg QD, Day 10, min) was 9.63 h, the AUC(0-t) [2] was 8170 ng·h/mL and the AUC [2] was 2800 ng·h/mL. The AUC(0-t) [3] was 6630 ng·h/mL, the AUC [3] was 3590 ng·h/mL and the Cmax (human, plasma, oral, 100 mg, 100 mg BID, Day 1, mean, read-out: Cmax) was 730 ng/mL. For the same molecule, the Tmax [3] was 2.25 h, the half-life [3] was 5.49 h and the AUC(0-t) [4] was 6640 ng·h/mL. For the same molecule, the AUC [4] was 3690 ng·h/mL, the Cmax (human, plasma, oral, 100 mg, 100 mg BID, Day 1, median, read-out: Cmax) was 809 ng/mL and the Tmax [4] was 2 h. It also gave a half-life [4] of 5.1 h, an AUC(0-inf) [5] of 9020 ng·h/mL and an AUC(0-t) [5] of 8810 ng·h/mL. It also gave an AUC [5] of 7000 ng·h/mL, a Cmax (human, plasma, oral, 100 mg, 100 mg BID, Day 10, individual subjects, read-out: Cmax) of 1300 ng/mL and a Tmax [5] of 2 h. It also gave an AUC(0-inf) [6] of 7270 ng·h/mL, an AUC(0-t) [6] of 6950 ng·h/mL and an AUC [6] of 5440 ng·h/mL. It also gave a Cmax (human, plasma, oral, 100 mg, 100 mg BID, Day 10, mean, read-out: Cmax) of 1020 ng/mL, a concentration at 10 day [6] of 146 ng/mL and a Tmax [6] of 1.75 h. For the same molecule, the Vd/F [6] was 370 L, the half-life [6] was 11.8 h and the AUC(0-inf) [7] was 7310 ng·h/mL. It also gave an AUC(0-t) [7] of 7040 ng·h/mL, an AUC [7] of 5760 ng·h/mL and a Cmax (human, plasma, oral, 100 mg, 100 mg BID, Day 10, median, read-out: Cmax) of 1060 ng/mL. For the same molecule, the Tmax [7] was 2 h, the Vd/F [7] was 210 L and the half-life [7] was 8.2 h. It also gave a Tmax (human, plasma, oral, 200 mg, 200 mg QD, Day 1, individual subjects) of 3 h, an AUC(0-t) [8] of 8060 ng·h/mL and an AUC [8] of 8060 ng·h/mL. It also gave a Cmax (human, plasma, oral, 200 mg, 200 mg QD, Day 1, mean, read-out: Cmax) of 1350 ng/mL, a Tmax [8] of 3.17 h and a half-life [8] of 8.64 h. It also gave an AUC(0-t) [9] of 7790 ng·h/mL, an AUC [9] of 7790 ng·h/mL and a Cmax (human, plasma, oral, 200 mg, 200 mg QD, Day 1, median, read-out: Cmax) of 1560 ng/mL. For the same molecule, the Tmax [9] was 3 h, the half-life [9] was 7.7 h and the Tmax (human, plasma, oral, 200 mg, 200 mg QD, Day 10, individual subjects) was 4 h. It also gave an AUC(0-inf) [10] of 11100 ng·h/mL, an AUC(0-t) [10] of 10600 ng·h/mL and an AUC [10] of 8850 ng·h/mL. It also gave a Cmax (human, plasma, oral, 200 mg, 200 mg QD, Day 10, mean, read-out: Cmax) of 1270 ng/mL, a concentration at 10 day [10] of 73 ng/mL and a Tmax [10] of 3.33 h. It also gave a Vd/F [10] of 881 L, a half-life [10] of 20.5 h and an AUC(0-inf) [11] of 11400 ng·h/mL. It also gave an AUC(0-t) [11] of 11100 ng·h/mL, an AUC [11] of 9830 ng·h/mL and a Cmax (human, plasma, oral, 200 mg, 200 mg QD, Day 10, median, read-out: Cmax) of 1440 ng/mL. It also gave a Tmax [11] of 3.5 h, a Vd/F [11] of 490 L and a half-life [11] of 17.1 h.
